In data set [1] the test system is HaCaT keratinocytes. The data set can be described thus: Proliferation of subconfluent HaCaT keratinocytes, number of cells per well determined daily. As to conditions: n=3. The class given is cell-based, human. As for the experimental part:
In order to investigate the effect of the hIK1 channel inhibitors clotrimazole and charybdotoxin, either 10 μM clotrimazole, 200 nM charybdotoxin (ChTx) or 1 mM 1-EBIO were/was added to cells which were growing subconfluently and the number of cells per well was determined daily.

The test system of data set [2] is HaCaT keratinocytes. The data set can be described thus: Patch-clamp recording of the membrane potential of HaCaT keratinocytes (current clamp; ATP-induced response). The class given is cell-based, human. Conditions: for blockers leading to a comparable depolarization on a plateau during treatment with ATP: other K+ channel blockers tested. Here is the method: In order to identify an ion channel which is substantially involved in the transduction of wound healing-specific signals, HaCaT cells were investigated electrophysiologically. The HaCaT keratinocytes were propagated in DEM containing 10% FCS (Gibco BRL) to which antibiotics (penicillin/streptomycin, 100 U/ml) had been added. […] The patch pipettes were prepared from small borosilicate tubes on a horizontal pulling device (DMZ, Zeitz) using the two-step pulling method. […] The resistance of these patch pipettes was 5-8 GΩ in the bath. After a seal in the GΩ range had been produced (typically 1.5-2 GΩ) the amplifier was switched to current clamp mode. […] The electrophysiological signals were recorded, amplified and digitalized using an Axopatch 200 amplifier in combination with a TL-1 Labmaster Interface and AXOTAPE software (Axon Instruments). The statistical analysis (one-way ANOVA with Bonferri post-test comparison) was carried out using Graphpad prism 2.0. […]
The inflow of liquid was gravity-dependent and was controlled by means of magnetic valves. Outflow was effected by applying a negative pressure using a vacuum pump. Substances were added, while observing visually, directly into the keratinocytes under investigation using a remotely controlled, magnet-controlled Y tube system (diameter of the efflux tube: 100 μm).
The electrophysiological recordings were carried out, using perforated patches, on HaCaT cells which had grown into a confluent monolayer.

Data set [3] relates to HaCaT cells. In words: Immunoblotting of the differentiation markers involucrin, keratin 1 and keratin 10. The class given is cell-based, human. Conditions: 1-EBIO 1, 100, 1000 μM, 4 days; dose-dependent. As for the experimental part:
For this, 5×10^5 HaCaT cells per well were grown in medium in a 6-well plate. […] 1% DMSO in medium was used as the solvent control (lane ‘C’). The cells were incubated for 4 days, with the medium being replaced daily. After 4 days, the protein concentration in the cell lysates was determined (BCA Assay, Pierce). Immunoblotting was then used to compare equal quantities of protein from the different lysates with the keratinocyte differentiation markers involucrin (1:500, Sigma) and keratin 1 and 10 (1:250, Progen) (FIG. 6).
(In general: In western blotting, separated proteins are transferred to a membrane and probed.)

The subject of data set [4] is HaCaT keratinocytes. In words: BrDU incorporation cell proliferation ELISA in HaCaT keratinocytes. Here is the method: The influence of activators of IK1 on proliferation was investigated using 1-EBIO and zolxazolamine (see above). Firstly, the influence of different concentrations of 1-EBIO on the growth rate of HaCaT cells was measured in the presence and in the absence of serum. For this purpose, 1×10^4 HaCaT cells per well were cultured in keratinocyte growth medium (KGM) for 5 days in a 96-well plate, in order to synchronize the cell cycle, with this being followed by a two-day incubation in the presence of different concentrations of 1-EBIO in KGM (see FIGS. 7 and 8) in the absence (FIG. 7) and in the presence (FIG. 8) of serum. […] 1% DMSO in KGM served as the solvent control. Cell proliferation was measured by the incorporation of bromodideoxyuridine (BrDU) while cell division was measured in accordance with the manufacturer's instructions (‘The Cell Proliferation ELISA, BrDU, Roche). The incorporation of BrDU was quantified by determining the absorption at 450 nm. In FIGS. 7 and 8, the absorption (A[450 nm]) is in each case plotted on the Y axis as a measure of the proliferation rate. Greater absorption reflects greater proliferation.
On the technique in general: ELISA stands for enzyme-linked immunosorbent assay.

The subject of data set [5] is HaCaT cells. In words: Keratinocyte differentiation by immunostaining with anti-K10 antibody. As to conditions: 1-EBIO 1 mM, 3 days. Type of data set: cell-based, human.

Entries after “also recorded” stand apart in the source; their conditions may differ.

Regarding `Clc1ccccc1C(c1ccccc1)(c1ccccc1)n1ccnc1` [clotrimazole], the influence on proliferation entry with HaCaT keratinocytes [1] (clotrimazole 10 μM) is recorded as “complete inhibition”; in the data set on HaCaT keratinocytes [1] (clotrimazole 10 μM, listed as Clotrimazole) it was “inhibited proliferation completely”. In the data set with HaCaT keratinocytes [2] (clotrimazole 1 μM prior to ATP, n=3), the “effect on the ATP-induced electrophysiological response, compared with 100 nM ChTx” value is recorded as “The same effect”.

As for `CCn1c(=O)[nH]c2cc(Cl)c(Cl)cc21` [DCEBIO, 5,6-dichloro-1-ethyl-1,3-dihydro-2H-benzimidazol-2-one], in the data set with HaCaT keratinocytes [2] (HaCaT cells), the “concentration for the same electrophysiological effect as 1-EBIO, times less concentrated” value is 300-1000 times.

In the case of `CC[N+](CC)(CC)CC` [TEA], the “blockers leading to a comparable depolarization on a plateau during treatment with ATP” value with HaCaT keratinocytes [2] is recorded as “None”.

With `CCCCCCCCCCCCCC(=O)O[C@@H]1[C@@H](C)[C@@]2(O)[C@@H](C=C(CO)C[C@]3(O)C(=O)C(C)=C[C@@H]23)[C@@H]2C(C)(C)[C@]12OC(C)=O` [PMA], the “influence on the effect of ATP” value with HaCaT keratinocytes [2] was “no influence”.

Consider `[Ba+2]` [Ba^2+], for which the “blockers leading to a comparable depolarization on a plateau during treatment with ATP” value with HaCaT keratinocytes [2] is “None”.

On to `CCn1c(=O)[nH]c2ccccc21` [1-EBIO, 1-ethyl-2-benzimidazolinone], for which the “effect on differentiation (involucrin, K1, K10 protein)” value with HaCaT cells [3] is given as “inhibit differentiation”. The “cell morphology and apoptosis under activator” value in the data set on HaCaT keratinocytes [4] is “no sign of apoptosis”. In the data set with HaCaT keratinocytes [4] (10% FCS), the “concentration of strongest inhibition of serum-induced proliferation” value is listed as 1 mM and the “dose dependence of the inhibition of serum-induced proliferation” value is on record as “dose-dependent”. For the same molecule, in the data set with HaCaT keratinocytes [4] (10% FCS, different concentrations of 1-EBIO, two-day incubation), the “effect on serum-induced proliferation (BrDU incorporation)” value was “inhibit serum-induced proliferation”. The “stimulation of cell proliferation (BrDU incorporation)” value in the data set on HaCaT keratinocytes [4] (absence of serum, different concentrations of 1-EBIO, two-day incubation) is “not on their own able to stimulate cell proliferation”. Further, the influence on proliferation result in the data set on HaCaT keratinocytes [1] (1-EBIO 1 mM) is “inhibited proliferation completely; also recorded: complete inhibition”. Also, in the data set on HaCaT keratinocytes [2] (1-EBIO 1 mM, n=3), the “membrane potential (rapid and powerful hyperpolarization to)” value was −83±3 mV. Moreover, in the data set with HaCaT keratinocytes [2] (ATP 10 μM in the presence of 1-EBIO 1 mM), the “transient depolarization on adding ATP, compared with controlled conditions” value is listed as “much stronger”. Also, in the data set on HaCaT cells [5], the “proportion of K10-stained (partially differentiated) cells versus control cells” value is “signficantly reduced”.

Consider calphostin C, for which the “effect on the ATP-mediated change in voltage” value in the data set with HaCaT keratinocytes [2] (calphostin C 50 nM) was “no effect”.

As to `NCCc1c[nH]cn1` [histamine], the “electrophysiological response compared with ATP” value in the data set with HaCaT keratinocytes [2] (histamine 100 μM, n=4) was “practically identical quantitatively and kinetically”.

Turning to `Nc1ncnc2c1ncn2[C@@H]1O[C@H](COP(=O)(O)OP(=O)(O)OP(=O)(O)O)[C@@H](O)[C@H]1O` [ATP], the “reversibility of the hyperpolarization” value with HaCaT keratinocytes [2] (1 μM ATP, n=9) is “could be reversed rapidly by washing out”. Moreover, the hyperpolarization with HaCaT keratinocytes [2] (10 μM ATP, n=28) is listed as 30±2 mV. Moreover, in the data set on HaCaT keratinocytes [2] (ATP 1-1000 μM, transient depolarization followed by long-lasting hyperpolarization), the “change in the membrane potential on perfusion” value is reported as “biphasic change in the membrane potential”. The “duration of the strong hyperpolarization after addition” value with HaCaT keratinocytes [2] (ATP concentrations of ≧10 μM) is “at least 5 min”.

Turning to “charybdotoxin (QFTNVSCTTSKECWSVCQRLHNTSRGKCMNKKCRCYS)”, in the data set on HaCaT keratinocytes [1] (charybdotoxin 200 nM), the influence on proliferation result is reported as “retarded proliferation; also recorded: growth which was only retarded”. In the data set on HaCaT keratinocytes [2] (ChTx 100 nM added after ATP, ATP still present, n=2), the “effect on the established ATP-mediated hyperpolarization” value is on record as “complete reversal of the hyperpolarization”. Moreover, the “effect on the ATP-induced electrophysiological response” value is “completely prevented repolarization” in the data set with HaCaT keratinocytes [2] (ChTx 100 nM prior to ATP, n=4, potential stayed on a depolarized plateau); “retarded repolarization of the rapid depolarization and prevented hyperpolarization” in the data set on HaCaT keratinocytes [2] (ChTx 10-100 nM prior to ATP, n=15). Moreover, the “inhibition of the ATP-mediated hyperpolarization” value with HaCaT keratinocytes [2] (charybdotoxin at various concentrations prior to ATP) is listed as “dose-dependent inhibition”.

The record behind these values is US20040248099A1, “Use of intermediate -conductance potassium channels and modulators for diagnosing and treating diseases having disturbed keratinocyte activity” (priority 2000, published 2004).
